This note sets out measurements from ChEMBL document CHEMBL1124304 (J Med Chem, 1988).

Each structure is given as a SMILES string.

Assay [1] has as its target T1, Adenosine A2 receptor (Rattus norvegicus) (UniProt P29276+P30543).
Assay [2] addresses T2, Adenosine receptor A1 (Rattus norvegicus) (UniProt P25099).
T2 sequence (whole entry): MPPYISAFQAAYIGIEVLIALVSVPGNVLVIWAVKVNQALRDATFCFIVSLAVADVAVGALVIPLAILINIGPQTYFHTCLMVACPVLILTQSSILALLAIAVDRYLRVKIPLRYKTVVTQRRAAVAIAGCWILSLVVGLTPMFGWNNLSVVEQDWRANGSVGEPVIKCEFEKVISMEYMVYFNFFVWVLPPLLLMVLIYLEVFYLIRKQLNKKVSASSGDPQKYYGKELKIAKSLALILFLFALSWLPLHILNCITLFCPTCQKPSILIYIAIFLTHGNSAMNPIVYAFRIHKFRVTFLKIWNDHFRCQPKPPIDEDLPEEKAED
Description: (§1) Reduction of heart rate (A1 response) in isolated rat heart preparation. Format: functional, tissue-based.

Assay [3] concerns the target T3, Adenosine receptor A1 (Rattus norvegicus, UniProt P25099).
T3 sequence (P25099 whole entry): T2 sequence (whole entry)
Description: Binding affinity towards adenosine A1 receptor on rat whole brain membrane using [3H]N6-cyclohexyladenosine

For assay [4], the target named is Adenosine A2 receptor (Rattus norvegicus, UniProt P29276+P30543).
Description: Binding affinity towards adenosine A2 receptor on rat striatal membrane using [3H]NECA as radioligand
Assay [5] deals with T1, Adenosine A2 receptor (Rattus norvegicus). This is another data set of the same source.
The species named for assay [6] is Rattus norvegicus. The assay is described as §1. The format is functional.
For assay [7], the species on record is Rattus norvegicus. Description: Enhancement of coronary flow (A2 response) in isolated rat heart preparation. The format is functional.

As a reminder, the EC25 is the concentration needed for an effect of 25%. On to `OC[C@H]1O[C@@H](n2cnc3c(NCc4ccccc4)ncnc32)[C@H](O)[C@@H]1O`, for which the concentration for an effect of 25% (EC25) is 35 nM in assay [1] and 2300 nM in assay [2].

Usually Ki stands for the equilibrium dissociation constant of an inhibitor or competing ligand from its target. Low values mean higher affinity, high ones lower affinity. Consider `OC[C@H]1OC(n2cnc3c(NCCc4cccc5ccccc45)ncnc32)[C@H](O)[C@@H]1O` (stereo partly specified), for which the inhibition constant (Ki) in assay [3] amounted to 12.3 nM; in assay [4] it was 230 nM. Moreover, the 25% effect concentration (EC25) in assay [2] was 110 nM; in assay [5], 30 nM.

In the case of `OC[C@H]1OC(n2cnc3c(NCc4c5ccccc5cc5ccccc45)ncnc32)[C@H](O)[C@@H]1O` (stereo partly specified), the inhibition constant Ki in assay [3] came to 9000 nM; in assay [4] it was 29000 nM.

On to `Nc1nc(Nc2ccccc2)nc2c1ncn2[C@@H]1O[C@H](CO)[C@@H](O)[C@H]1O`, for which the EC25 is 3 nM in assay [1] and 7000 nM in assay [2].

For the compound `OC[C@H]1O[C@@H](n2cnc3c(NCC(c4ccccc4)c4ccccc4)ncnc32)[C@H](O)[C@@H]1O`, the values for the EC25 in assay [1] and in assay [2] were 10 nM and 90 nM, respectively.

In the case of `OC[C@H]1O[C@@H](n2cnc3c(NCC4c5ccccc5-c5ccccc54)ncnc32)[C@H](O)[C@@H]1O`, the EC25 in assay [2] is 100 nM; in assay [5], 2 nM.

As to `OC[C@H]1O[C@@H](n2cnc3c(NC4CCCC4)ncnc32)[C@H](O)[C@@H]1O`, the EC25 in assay [1] is over 100 nM; in assay [2] it was 3 nM.

Regarding `OC[C@H]1OC(n2cnc3c(NC4c5ccccc5-c5ccccc54)ncnc32)[C@H](O)[C@@H]1O` (stereo partly specified), the Ki came to 6200 nM in assay [3] and 42000 nM in assay [4].

Regarding `OC[C@H]1OC(n2cnc3c(NCC4c5ccccc5CCc5ccccc54)ncnc32)[C@H](O)[C@@H]1O` (stereo partly specified), the values for the Ki in assay [3] and in assay [4] were 160 nM and 390 nM, respectively.

`Nc1nc(Cl)nc2c1ncn2[C@@H]1O[C@H](CO)[C@@H](O)[C@H]1O`: the figures for the EC25 in assay [1] and in assay [2] were 13 nM and 170 nM, respectively.

Take `C[C@H](Cc1ccccc1)Nc1ncnc2c1ncn2[C@@H]1O[C@H](CO)[C@@H](O)[C@H]1O`: the 25% effect concentration (EC25) in assay [1] is 10 nM; in assay [2], 13 nM.

As to `OC[C@H]1O[C@@H](n2cnc3c(NCCc4ccccc4)ncnc32)[C@H](O)[C@@H]1O`, the values for the concentration for an effect of 25% (EC25) in assay [1] and in assay [2] were 70 nM and 300 nM, respectively. Also, the affinity in assay [4], expressed as Ki, was 160 nM.

For `OC[C@H]1O[C@@H](n2cnc3c(NCc4cccc5ccccc45)ncnc32)[C@H](O)[C@@H]1O`, the inhibition constant (Ki) in assay [3] was determined as 24 nM; in assay [4] it was 9.1 nM. Besides, the concentration for an effect of 25% (EC25) in assay [2] worked out at 400 nM; in assay [5], 1.2 nM.

On to `OC[C@H]1OC(n2cnc3c(NCCC4c5ccccc5-c5ccccc54)ncnc32)[C@H](O)[C@@H]1O` (stereo partly specified), for which the Ki in assay [3] turned out to be 320 nM; in assay [4], 4300 nM. The EC25 in assay [2] is over 3000 nM; in assay [5] it was 400 nM.

`CCNC(=O)[C@H]1O[C@@H](n2cnc3c(N)ncnc32)[C@H](O)[C@@H]1O` [NECA]: the results for the concentration for an effect of 25% (EC25) in assay [6] and in assay [7] were 21 nM and 1.1 nM, respectively.

Regarding `OC[C@H]1OC(n2cnc3c(NCC4c5ccccc5Oc5ccccc54)ncnc32)[C@H](O)[C@@H]1O` (stereo partly specified), the figures for the inhibitory constant (Ki) in assay [3] and in assay [4] were 62 nM and 48 nM, respectively. In addition, the EC25 in assay [2] was 1200 nM; in assay [5] it was 2 nM.
